Literature values as cited in article PMC6006448 (ACS Chemical Biology, 2018).

Tested on: Rac1 and Cdc42

COc1ccc2cc([C@@H](C)C(=O)O)ccc2c1 [R-naproxen]
action on Rac1 and Cdc42 in a cellular setting: inhibitor
